Measured values taken from patent publication EP4621028A1, “FLUORESCENCE RECOVERY IN NANOGRAPHENE” (Max-Planck-Gesellschaft zur Förderung der Wissenschaften …, priority 2024, dated 2025).

What was measured:
[1] = Absorption and fluorescence in toluene; format: physicochemical; conditions: for molar extinction coefficient ε: at maximum absorption wavelength
[2] = Solubility in water; format: physicochemical; conditions: room temperature
Description: In accordance with the present invention, the solubility and particularly the solubility of the compound having the general formula (1) or the general formula (2) in water at 23°C is measured as follows: 1 mg sample is weighed into an Erlenmeyer flask and is then mixed homogeneously with 4 ml of water with a spatula at 23°C. The remaining substance on the spatula is stripped off with a magnetic stirrer bar, which is then added to the Erlenmeyer flask. While stirring with a magnetic stirrer, water is added dropwise with a burette until the solution in the Erlenmeyer flask becomes clear at 23°C. After that, the solubility of compound in water is calculated by calculating the ratio of weighed compound divided by the volume of added water and then by recalculating this ratio to 1 I of water.

| Compound | absorption spectrum and emission spectrum [1] | molar extinction coefficient ε ([1]; in toluene (10^-5 mol/L)) [M⁻¹ cm⁻¹] | other results |
| --- | --- | --- | --- |
| Cc1cccc(C)c1-c1c2cccc3c4ccc5ccc6c(-c7c(C)cccc7C)c7cccc8c9ccc%10ccc1c1c%10c9c9c(c78)c6c5c4c9c1c23 [Example 3, 6, 14-bis(dimethylphenyl)dibenzo[hi,st]ovalene] | narrow absorption spectrum as well as a narrow emission spectrum | 283000 | – |
| CC(C)[Si](C#Cc1c2cccc3c4ccc5ccc6c(C#C[Si](C(C)C)(C(C)C)C(C)C)c7cccc8c9ccc%10ccc1c1c%10c9c9c(c78)c6c5c4c9c1c23)(C(C)C)C(C)C [Example 6, 6, 14-di(triisopropylsilylethynyl) dibenzo[hi,st]ovalene] | narrow absorption spectrum as well as a narrow emission spectrum | 61511 | – |
| COCCOCCOCCOCCOc1cc(-c2ccc3cc4cc5c(-c6c(C)cc(C)cc6C)cc6cc7c(-c8cc(OCCOCCOCCOCCOC)c(OCCOCCOCCOCCOC)c(OCCOCCOCCOCCOC)c8)ccc8cc9cc%10c(-c%11c(C)cc(C)cc%11C)cc%11cc2c3c2c%11c%10c3c9c(c87)c6c5c3c42)cc(OCCOCCOCCOCCOC)c1OCCOCCOCCOCCOC [Example 5, 3,11-bis(3,4,5-tris(2,5,8,11-tetraoxatridecan-13-yloxy)phenyl)-6,14-dimesityldibenzo[hi, st]ovalene] | – | – | solubility of this compound in water [2]: 100 µg/mL |
| c1ccc(-c2c3cccc4c5ccc6ccc7c(-c8ccccc8)c8cccc9c%10ccc%11ccc2c2c%11c%10c%10c(c89)c7c6c5c%10c2c34)cc1 [Example 8, 6,14-diphenyldibenzo[hi,st]ovalene] | narrow absorption spectrum as well as a narrow emission spectrum | – | – |
| N-hexyl fumaric acid imide group substituted 6,14-dimesityldibenzo[hi,st]ovalene [Example 9] | narrow absorption spectrum as well as a narrow emission spectrum | – | – |
| 6,14-didodecyldibenzo[hi,st]ovalene [Example 2] | – | 203000 | fluorescence quantum yield ([1]; in toluene (10^-5 mol/L)): 0.85; maximum absorption wavelength ([1]; in toluene (10^-5 mol/L)): 611 nm |
| CCCCCCCCCCCCOc1cc(-c2c3cccc4c5ccc6ccc7c(-c8cc(OCCCCCCCCCCCC)c(OCCCCCCCCCCCC)c(OCCCCCCCCCCCC)c8)c8cccc9c%10ccc%11ccc2c2c%11c%10c%10c(c89)c7c6c5c%10c2c34)cc(OCCCCCCCCCCCC)c1OCCCCCCCCCCCC [Example 7, 6,14-bis[3,4,5-tris(dodecoxyl)phenyl]dibenzo[hi,st]ovalene] | – | 385000 | – |
